In PubChem BioAssay (NCI):
Values joined by “and” are separate entries in the source; they are usually repeats but may differ in a detail not shown here. Identical values can stand only once.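 Compound exposure: 48 hours, 5 concentrations, 96-well plates. Abbreviation: GI50, concentration required for 50% inhibition of growth. TGI denotes the concentration required for complete inhibition of growth.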

What was measured:
Test in all cases: NCI-60 cell line screen, 48 h
MDA-N = test system: MDA-N
M14 melanoma = test system: M14 melanoma
U251 CNS = test system: U251 CNS
NCI-H460 lung = test system: NCI-H460 lung
UO-31 renal = test system: UO-31 renal
MDA-MB-231 breast = test system: MDA-MB-231 breast
SN12C renal = test system: SN12C renal
T-47D breast = test system: T-47D breast
NCI-H522 lung = test system: NCI-H522 lung
A498 renal = test system: A498 renal
HCC-2998 colon = test system: HCC-2998 colon
SW-620 colon = test system: SW-620 colon
MALME-3M melanoma = test system: MALME-3M melanoma
BT-549 breast = test system: BT-549 breast
ACHN renal = test system: ACHN renal
OVCAR-5 ovarian = test system: OVCAR-5 ovarian
HOP-62 NSCLC = test system: HOP-62 NSCLC
UACC-257 melanoma = test system: UACC-257 melanoma
COLO 205 colon = test system: COLO 205 colon
PC-3 prostate = test system: PC-3 prostate
SK-OV-3 ovarian = test system: SK-OV-3 ovarian
KM12 colon = test system: KM12 colon
HS 578T breast = test system: HS 578T breast
TK-10 renal = test system: TK-10 renal
SK-MEL-2 melanoma = test system: SK-MEL-2 melanoma
NCI/ADR-RES ovarian = test system: NCI/ADR-RES ovarian
786-0 renal = test system: 786-0 renal
HCT-116 colon = test system: HCT-116 colon
SK-MEL-5 melanoma = test system: SK-MEL-5 melanoma
OVCAR-4 ovarian = test system: OVCAR-4 ovarian
SNB-19 CNS = test system: SNB-19 CNS
EKVX NSCLC = test system: EKVX NSCLC
NCI-H23 lung = test system: NCI-H23 lung
UACC-62 melanoma = test system: UACC-62 melanoma
A549 NSCLC = test system: A549 NSCLC
LOX IMVI melanoma = test system: LOX IMVI melanoma
HL-60(TB) leukemia = test system: HL-60(TB) leukemia
RXF 393 renal = test system: RXF 393 renal
IGROV1 ovarian = test system: IGROV1 ovarian
MOLT-4 leukemia = test system: MOLT-4 leukemia
SF-268 CNS = test system: SF-268 CNS
NCI-H226 lung = test system: NCI-H226 lung
HOP-92 NSCLC = test system: HOP-92 NSCLC
HCT-15 colon = test system: HCT-15 colon
DU-145 prostate = test system: DU-145 prostate
K-562 leukemia = test system: K-562 leukemia
SK-MEL-28 melanoma = test system: SK-MEL-28 melanoma
CAKI-1 renal = test system: CAKI-1 renal
SF-295 CNS = test system: SF-295 CNS
SR leukemia = test system: SR leukemia
RPMI-8226 leukemia = test system: RPMI-8226 leukemia
MDA-MB-435 = test system: MDA-MB-435
MCF7 breast = test system: MCF7 breast
CCRF-CEM leukemia = test system: CCRF-CEM leukemia
SNB-75 CNS = test system: SNB-75 CNS
OVCAR-3 ovarian = test system: OVCAR-3 ovarian
OVCAR-8 ovarian = test system: OVCAR-8 ovarian
SF-539 CNS = test system: SF-539 CNS
HT29 colon = test system: HT29 colon

## O=C(O)CN1C(=O)c2ccc(NC(=O)C(=O)O)cc2S1(=O)=O
MDA-N
  TGI: > 100 µM
M14 melanoma
  TGI: > 100 µM
U251 CNS
  TGI: > 100 µM
NCI-H460 lung
  TGI: > 100 µM
UO-31 renal
  TGI: > 100 µM
MDA-MB-231 breast
  TGI: > 100 µM
SN12C renal
  TGI: > 100 µM
T-47D breast
  TGI: > 100 µM
NCI-H522 lung
  TGI: > 100 µM
A498 renal
  TGI: > 100 µM
HCC-2998 colon
  TGI: > 100 µM
SW-620 colon
  TGI: > 100 µM
MALME-3M melanoma
  TGI: > 100 µM
BT-549 breast
  TGI: > 100 µM
ACHN renal
  TGI: > 100 µM
OVCAR-5 ovarian
  TGI: > 100 µM
HOP-62 NSCLC
  TGI: > 100 µM
UACC-257 melanoma
  TGI: > 100 µM
COLO 205 colon
  TGI: > 100 µM
PC-3 prostate
  TGI: > 100 µM
SK-OV-3 ovarian
  TGI: > 100 µM
KM12 colon
  TGI: > 100 µM
HS 578T breast
  TGI: > 100 µM
TK-10 renal
  TGI: > 100 µM
SK-MEL-2 melanoma
  TGI: > 100 µM
NCI/ADR-RES ovarian
  TGI: > 100 µM
786-0 renal
  TGI: > 100 µM
HCT-116 colon
  TGI: > 100 µM
SK-MEL-5 melanoma
  TGI: > 100 µM
OVCAR-4 ovarian
  TGI: > 100 µM
SNB-19 CNS
  TGI: > 100 µM
EKVX NSCLC
  TGI: > 100 µM
NCI-H23 lung
  TGI: > 100 µM
UACC-62 melanoma
  TGI: > 100 µM
A549 NSCLC
  TGI: > 100 µM
LOX IMVI melanoma
  TGI: > 100 µM
HL-60(TB) leukemia
  TGI: > 100 µM
RXF 393 renal
  TGI: > 100 µM
IGROV1 ovarian
  TGI: > 100 µM
MOLT-4 leukemia
  TGI: > 100 µM
SF-268 CNS
  TGI: > 100 µM
NCI-H226 lung
  TGI: > 100 µM
HOP-92 NSCLC
  TGI: > 100 µM
HCT-15 colon
  TGI: > 100 µM
DU-145 prostate
  TGI: > 100 µM
K-562 leukemia
  TGI: > 100 µM
SK-MEL-28 melanoma
  TGI: > 100 µM
CAKI-1 renal
  TGI: > 100 µM
SF-295 CNS
  TGI: > 100 µM
SR leukemia
  TGI: > 100 µM
RPMI-8226 leukemia
  TGI: > 100 µM
MDA-MB-435
  TGI: > 100 µM
MCF7 breast
  TGI: > 100 µM
CCRF-CEM leukemia
  TGI: > 100 µM

## CCCC(=O)Nc1cc(C(=O)N2C[C@H]3C[C@@]34C2=CC(=O)c2[nH]cc(C)c24)n(COC)c1
MDA-N
  GI50: 0.164 µM
  TGI: 1.59 µM and 0.316 µM
M14 melanoma
  GI50: 0.167 µM
NCI-H460 lung
  GI50: 0.135 µM
UO-31 renal
  GI50: 0.561 µM
  TGI: 3.64 µM
MDA-MB-231 breast
  TGI: 3 µM
SN12C renal
  GI50: 0.168 µM
  TGI: 4.18 µM and 0.684 µM
T-47D breast
  TGI: 1.49 µM
NCI-H522 lung
  GI50: 0.0115 µM
  TGI: 0.261 µM and 0.117 µM
A498 renal
  GI50: 0.22 µM
  TGI: 1.7 µM and 0.758 µM
HCC-2998 colon
  GI50: 0.14 µM
  TGI: 0.361 µM and 0.336 µM
SW-620 colon
  GI50: 0.184 µM
  TGI: 82.2 µM
MALME-3M melanoma
  TGI: 0.439 µM
BT-549 breast
  GI50: 0.159 µM
ACHN renal
  GI50: 0.0888 µM
  TGI: 2.5 µM and 0.342 µM
OVCAR-5 ovarian
  TGI: 50 µM
HOP-62 NSCLC
  GI50: 0.104 µM
UACC-257 melanoma
  TGI: 0.833 µM
COLO 205 colon
  GI50: 0.119 µM
  TGI: 1.14 µM and 0.261 µM
PC-3 prostate
  GI50: 0.147 µM
SK-OV-3 ovarian
  TGI: 5.36 µM
KM12 colon
  GI50: 0.282 µM
  TGI: 2.29 µM and 14.7 µM
HS 578T breast
  GI50: 0.267 µM
  TGI: 2.88 µM and 0.989 µM
TK-10 renal
  TGI: 2.87 µM
SNB-75 CNS
  TGI: 1.45 µM and 0.718 µM
OVCAR-3 ovarian
  TGI: 0.688 µM
OVCAR-8 ovarian
  GI50: 0.13 µM
  TGI: 0.343 µM and 0.392 µM
SK-MEL-2 melanoma
  GI50: 0.13 µM
NCI/ADR-RES ovarian
  GI50: 1.17 µM
  TGI: 2.73 µM and 4.64 µM
786-0 renal
  TGI: 5.82 µM
HCT-116 colon
  TGI: 7.27 µM
OVCAR-4 ovarian
  GI50: 0.239 µM
  TGI: 4.76 µM and 0.626 µM
SNB-19 CNS
  GI50: 0.326 µM
  TGI: 29.1 µM and 13 µM
SF-539 CNS
  GI50: 0.118 µM
EKVX NSCLC
  GI50: 0.421 µM
  TGI: 3.37 µM and 2.29 µM
NCI-H23 lung
  GI50: 0.0328 µM
  TGI: 0.452 µM and 0.213 µM
UACC-62 melanoma
  GI50: 0.144 µM
  TGI: 0.911 µM and 0.289 µM
A549 NSCLC
  GI50: 1.2 µM
  TGI: 50 µM and 12.8 µM
HL-60(TB) leukemia
  TGI: 0.23 µM
RXF 393 renal
  GI50: 0.106 µM
HT29 colon
  GI50: 0.296 µM
  TGI: 4.47 µM and 20.5 µM
SF-268 CNS
  GI50: 0.0847 µM
  TGI: 1.5 µM and 11.1 µM
NCI-H226 lung
  TGI: 5.18 µM
HOP-92 NSCLC
  GI50: 0.291 µM
  TGI: 2.64 µM and 0.728 µM
HCT-15 colon
  GI50: 0.242 µM
  TGI: 17.8 µM and 2.31 µM
DU-145 prostate
  GI50: 0.0776 µM
K-562 leukemia
  GI50: 0.0925 µM
  TGI: 50 µM and 18.8 µM
SK-MEL-28 melanoma
  TGI: 1.28 µM
CAKI-1 renal
  GI50: 0.175 µM
  TGI: 1.03 µM and 0.52 µM
SF-295 CNS
  GI50: 0.229 µM
SR leukemia
  TGI: 0.0236 µM
RPMI-8226 leukemia
  GI50: 0.176 µM
  TGI: 2.84 µM and 0.776 µM
MDA-MB-435
  TGI: 1.6 µM and 0.537 µM
MCF7 breast
  GI50: 0.0139 µM
  TGI: 6.32 µM and 0.661 µM
CCRF-CEM leukemia
  TGI: 0.105 µM and 0.245 µM

## O=[N+]([O-])c1ccccc1N=Nc1c(O)[nH]c2c(Cl)cccc12
MDA-N
  TGI: > 100 µM
M14 melanoma
  TGI: > 100 µM
U251 CNS
  TGI: > 51.5 µM
NCI-H460 lung
  TGI: 38.4 µM
UO-31 renal
  TGI: > 67.2 µM
MDA-MB-231 breast
  TGI: 23.4 µM
SN12C renal
  TGI: > 57.7 µM
T-47D breast
  TGI: > 75 µM
NCI-H522 lung
  TGI: 26.1 µM
A498 renal
  TGI: > 68.8 µM
HCC-2998 colon
  TGI: > 100 µM
SW-620 colon
  TGI: > 79 µM
MALME-3M melanoma
  TGI: > 35.2 µM
BT-549 breast
  TGI: > 82.3 µM
ACHN renal
  TGI: > 45.8 µM
OVCAR-5 ovarian
  TGI: > 100 µM
HOP-62 NSCLC
  TGI: 40.9 µM
UACC-257 melanoma
  TGI: > 42.5 µM
COLO 205 colon
  TGI: > 100 µM
PC-3 prostate
  TGI: > 100 µM
SK-OV-3 ovarian
  TGI: 54.7 µM
KM12 colon
  TGI: > 80.3 µM
HS 578T breast
  TGI: 43.4 µM
TK-10 renal
  TGI: > 54.9 µM
SNB-75 CNS
  TGI: 51.7 µM
OVCAR-3 ovarian
  TGI: > 85.3 µM
OVCAR-8 ovarian
  TGI: 37.4 µM
SK-MEL-2 melanoma
  TGI: > 100 µM
NCI/ADR-RES ovarian
  TGI: > 60.5 µM
786-0 renal
  TGI: 31.1 µM
HCT-116 colon
  TGI: > 66.6 µM
SK-MEL-5 melanoma
  TGI: > 46.5 µM
OVCAR-4 ovarian
  TGI: 24.8 µM
SNB-19 CNS
  TGI: > 79.3 µM
SF-539 CNS
  TGI: > 100 µM
EKVX NSCLC
  TGI: > 61.5 µM
NCI-H23 lung
  TGI: > 71.3 µM
UACC-62 melanoma
  TGI: > 82.1 µM
A549 NSCLC
  TGI: > 58.6 µM
LOX IMVI melanoma
  TGI: 44.1 µM
HL-60(TB) leukemia
  TGI: > 100 µM
RXF 393 renal
  TGI: 98.1 µM
HT29 colon
  TGI: 99.4 µM
IGROV1 ovarian
  TGI: > 47.8 µM
MOLT-4 leukemia
  TGI: > 100 µM
SF-268 CNS
  TGI: 59.8 µM
NCI-H226 lung
  TGI: > 78.2 µM
HCT-15 colon
  TGI: > 100 µM
DU-145 prostate
  TGI: > 79.2 µM
K-562 leukemia
  TGI: > 100 µM
SK-MEL-28 melanoma
  TGI: > 72.4 µM
CAKI-1 renal
  TGI: 26.3 µM
SF-295 CNS
  TGI: 31.6 µM
SR leukemia
  TGI: > 69.6 µM
RPMI-8226 leukemia
  TGI: 96.2 µM
MDA-MB-435
  TGI: > 100 µM
MCF7 breast
  TGI: > 89.6 µM
CCRF-CEM leukemia
  TGI: > 100 µM
